Ki data for three compounds are collected here from US7648979B2, “5-amido-(1H-indol-2-yl)-piperazin-1-yl-methanone derivatives” (Hoffmann-La Roche Inc., priority 2007, dated 2010).

The structures appear in SMILES notation.

The target of the experiment is histamine 3 receptor (H3R) (Homo sapiens, UniProt Q9Y5N1). Nature of the experiment: Binding Assay with 3H-(R)α-methylhistamine (competition binding, membranes of human H3R-CHO cell line). Conditions: competition with 3H(R)α-methylhistamine (1 nM), Ki calculated from IC50 by Cheng-Prusoff. How it is done:
Binding Assay with ^3H-(R)α-methylhistamine
Saturation binding experiments were performed using HR3-CHO membranes prepared as described in Takahashi, K, Tokita, S., Kotani, H. (2003) J. Pharmacol. Exp. Therapeutics 307, 213-218.
An appropriate amount of membrane (60 to 80 μg protein/well) was incubated with increasing concentrations of ^3H(R)α-Methylhistamine di-hydrochloride (0.10 to 10 nM). Non specific binding was determined using a 200 fold excess of cold (R)α-Methylhistamine dihydrobromide (500 nM final concentration). The incubation was carried out at room temperature (in deep-well plates shaking for three hours). The final volume in each well was 250 μl. The incubation was followed by rapid filtration on GF/B filters (pre-soaked with 100 μl of 0.5% PEI in Tris 50 mM shaking at 200 rpm for two hours). The filtration was made using a cell-harvester and the filter plates were then washed five times with ice cold washing buffer containing 0.5 M NaCl. After harvesting, the plates were dried at 55° C. for 60 min, then we added scintillation fluid (Microscint 40, 40 microl in each well) and the amount of radioactivity on the filter was determined in Packard top-counter after shaking the plates for two hours at 200 rpm at room temperature.
Binding Buffer: 50 mM Tris-HCl pH 7.4 and 5 mM MgCl2×6H2O pH 7.4. Washing Buffer: 50 mM Tris-HCl pH 7.4 and 5 mM MgCl2×6H2O and 0.5 M NaCl pH 7.4.
Indirect measurement of affinity of H3R inverse agonists: twelve increasing concentrations (ranging from 10 μM to 0.3 nM) of the selected compounds were always tested in competition binding experiments using membrane of the human H3R—CHO cell line. […]
All compounds were tested at a single concentration in duplicate. […] Ki's were calculated from IC50 based on Cheng-Prusoff equation (Cheng, Y, Prusoff, W H (1973) Biochem Pharmacol 22, 3099-3108): Ki=IC50/[1+D/Kd] wherein D is the concentration of the radioligand and Kd is the binding constant for the radioligand binding to the receptor under the conditions used in the competition experiment.

Chain of histamine 3 receptor (H3R) (Q9Y5N1 whole entry): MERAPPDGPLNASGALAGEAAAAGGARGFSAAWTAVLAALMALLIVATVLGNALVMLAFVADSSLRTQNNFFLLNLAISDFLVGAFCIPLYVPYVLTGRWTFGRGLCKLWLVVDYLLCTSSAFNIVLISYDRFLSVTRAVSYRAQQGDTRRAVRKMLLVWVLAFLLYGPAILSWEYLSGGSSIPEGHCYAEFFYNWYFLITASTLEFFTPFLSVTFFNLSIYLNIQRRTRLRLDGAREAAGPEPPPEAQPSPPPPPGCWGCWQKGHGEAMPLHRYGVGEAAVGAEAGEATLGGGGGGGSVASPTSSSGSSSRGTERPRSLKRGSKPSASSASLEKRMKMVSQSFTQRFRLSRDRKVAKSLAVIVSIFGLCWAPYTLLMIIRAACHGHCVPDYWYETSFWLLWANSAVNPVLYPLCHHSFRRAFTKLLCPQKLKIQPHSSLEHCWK

What is called Ki is the dissociation constant of the complex between target and ligand, obtained from inhibition or displacement. For the compound `CC(C)N1CCN(C(=O)c2ccc3c(c2)cc(C(=O)N2CCN(S(C)(=O)=O)CC2)n3-c2ccnc(Cl)c2)CC1` [Example 7, [1-(2-Chloro-pyridin-4-yl)-5-(4-isopropyl-piperazine-1-carbonyl)-1H-indol-2-yl]-(4-methanesulfonyl-piperazin-1-yl)-methanone], the inhibition constant (Ki) was 11.7 nM.

With `CC(C)N1CCN(C(=O)c2ccc3c(c2)cc(C(=O)N2CCN(S(=O)(=O)c4ccccc4)CC2)n3-c2ccnc(Cl)c2)CC1` [Example 17, (4-Benzenesulfonyl-piperazin-1-yl)-[1-(2-chloro-pyridin-4-yl)-5-(4-isopropyl-piperazine-1-carbonyl)-1H-indol-2-yl]-methanone], the Ki is 5.7 nM.

For `CC(C)N1CCN(C(=O)c2ccc3c(c2)cc(C(=O)N2CCN(C(=O)N4CCCCC4)CC2)n3-c2ccnc(Cl)c2)CC1` [Example 19, [1-(2-Chloro-pyridin-4-yl)-5-(4-isopropyl-piperazine-1-carbonyl)-1H-indol-2-yl]-[4-(piperidine-1-carbonyl)-piperazin-1-yl]-methanone], the Ki is 7.5 nM.
